Our source for the IC50 values is patent US20120083476A1, “HETEROARYL-SUBSTITUTED SPIROCYCLIC DIAMINE UREA MODULATORS OF FATTY ACID AMIDE HYDROLASE” (Janssen Pharmaceutica NV, priority 2009, published 2012).

Where a name gives a salt, the structure may show the parent alone.

The first assay has as its target T1, Rat FAAH (Rattus norvegicus, UniProt P97612).
T1 construct: expressed in transfected cells; host or cells: SK-N-MC cells stably transfected with rat FAAH cDNA (G418 selection)
T1 sequence (P97612 1-579): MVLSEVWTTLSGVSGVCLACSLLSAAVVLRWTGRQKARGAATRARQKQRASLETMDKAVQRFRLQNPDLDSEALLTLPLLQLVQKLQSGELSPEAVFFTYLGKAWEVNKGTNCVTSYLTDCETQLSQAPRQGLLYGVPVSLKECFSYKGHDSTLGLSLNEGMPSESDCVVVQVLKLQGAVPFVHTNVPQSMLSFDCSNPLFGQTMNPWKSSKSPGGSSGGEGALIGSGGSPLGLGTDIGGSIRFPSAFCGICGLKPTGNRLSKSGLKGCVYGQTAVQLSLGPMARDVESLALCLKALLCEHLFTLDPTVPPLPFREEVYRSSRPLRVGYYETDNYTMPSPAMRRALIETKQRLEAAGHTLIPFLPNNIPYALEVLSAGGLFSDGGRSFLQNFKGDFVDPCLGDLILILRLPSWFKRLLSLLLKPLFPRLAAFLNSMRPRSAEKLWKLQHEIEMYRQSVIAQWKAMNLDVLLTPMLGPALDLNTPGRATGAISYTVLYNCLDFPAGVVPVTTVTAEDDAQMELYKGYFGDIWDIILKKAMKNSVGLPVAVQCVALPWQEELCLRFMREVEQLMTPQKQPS
Nature of the assay: Assay Method 2: rat FAAH assay (3H-anandamide hydrolysis in cell homogenate). Conditions: read-out: Assay 2 IC50. The class given is biochemical. How it is done: A. Transfection of Cells with Rat FAAH A 10-cm tissue culture dish with a confluent monolayer of SK-N-MC cells was split 2 days (d) prior to transfection. Using sterile technique, the media was removed and the cells were detached from the dish by the addition of trypsin. One fifth of the cells were then placed onto a new 10-cm dish. Cells were grown in a 37° C. incubator with 5% CO2 in Minimal Essential Media Eagle with 10% Fetal Bovine Serum. After 2 d, cells were approximately 80% confluent. These cells were removed from the dish with trypsin and pelleted in a clinical centrifuge. The pellet was re-suspended in 400 μL complete media and transferred to an electroporation cuvette with a 0.4 cm gap between the electrodes. Supercoiled rat FAAH cDNA (1 μg) was added to the cells and mixed. The voltage for the electroporation was set at 0.25 kV, and the capacitance was set at 960 μF. After electroporation, the cells were diluted into complete media (10 mL) and plated onto four 10-cm dishes. Because of the variability in the efficiency of electroporation, four different concentrations of cells were plated. The ratios used were 1:20, 1:10, and 1:5, with the remainder of the cells being added to the fourth dish. The cells were allowed to recover for 24 h before adding the selection media (complete media with 600 μg/mL G418). After 10 d, dishes were analyzed for surviving colonies of cells. Dishes with well-isolated colonies were used. Cells from individual colonies were isolated and tested. […] B. FAAH Assay T84 frozen cell pellets or transfected SK-N-MC cells (contents of 1×15 cm culture dishes) were homogenized in 50 mL of FAAH assay buffer (125 mM Tris, 1 mM EDTA, 0.2% Glycerol, 0.02% Triton X-100, 0.4 mM Hepes, pH 9). […] The reaction mixture was incubated at rt for 1 h. During the incubation, 96-well Multiscreen filter plates (catalog number MAFCNOB50; Millipore, Bedford, Mass., USA) were loaded with 25 of activated charcoal (Multiscreen column loader, catalog number MACL09625, Millipore) and washed once with 100 μL of MeOH. Also during the incubation, 96-well DYNEX MicroLite plates (catalog number NL510410) were loaded with 100 μL of MicroScint40 (catalog number 6013641, Packard Bioscience, Meriden, Conn., USA). After the 1 h incubation, 60 μL of the reaction mixture were transferred to the charcoal plates, which were then assembled on top of the DYNEX plates using Centrifuge Alignment Frames (catalog number MACF09604, Millipore). The unbound labeled ethanolamine was centrifuged through to the bottom plate (5 min at 2000 rpm), which was preloaded with the scintillant, as described above. The plates were sealed and left at rt for 1 h before counting on a Hewlett Packard TopCount. Results for compounds tested in these assays are summarized in Table 1, as an average of results obtained. Compounds were tested in free base or trifluoroacetic acid salt forms. Where activity is shown as greater than (>) a particular value, the value is the solubility limit of the compound in the assay medium or the highest concentration tested in the assay.
For orientation: IC50 means the point on the concentration scale where inhibition reaches its midpoint. On to `O=C(Nc1cccnc1)N1CCCC2(CN(Cc3cccc(Oc4ccc(Cl)cc4)c3)C2)C1` [Example 26, 2-(3-(4-chlorophenoxy)benzyl)-N-(pyridin-3-yl)-2,6-diazaspiro[3.5]nonane-6-carboxamide], for which the half-inhibitory concentration (IC50) worked out at 6 µM.
On the same count and under the same terms, the figure for `O=C(Nc1cnc2ccccc2c1)N1CCCC2(CN(Cc3cccc(Oc4ccc(Cl)cc4)c3)C2)C1` [Example 32, 2-(3-(4-chlorophenoxy)benzyl)-N-(quinolin-3-yl)-2,6-diazaspiro[3.5]nonane-6-carboxamide] is 0.01 µM; for `O=C(Nc1ccc(-n2cnnc2)nc1)N1CC2(CCN(Cc3cccc(Oc4ccc(Cl)cc4)c3)CC2)C1` [Example 47, 7-[3-(4-Chloro-phenoxy)-benzyl]-2,7-diaza-spiro[3.5]nonane-2-carboxylic acid (6-[1,2,4]triazol-4-yl-pyridin-3-yl)-amide, trifluoroacetic acid salt] it is above 10 µM.
On the same count and under the same terms, the figure for `O=C(Nc1nnn[nH]1)N1CC2(CCN(Cc3cccc(Oc4ccc(Cl)cc4)c3)CC2)C1` [Example 51, 7-[3-(4-Chloro-phenoxy)-benzyl]-2,7-diaza-spiro[3.5]nonane-2-carboxylic acid (1H-tetrazol-5-yl)-amide, trifluoroacetic acid salt] is 0.2 µM; for `O=C(Nc1cnc(-c2ccccc2)nc1)N1CC2(CCN(Cc3cccc(Oc4ccc(Cl)cc4)c3)CC2)C1` [Example 83, 7-(3-(4-chlorophenoxy)benzyl)-N-(2-phenylpyrimidin-5-yl)-2,7-diazaspiro[3.5]nonane-2-carboxamide, trifluoroacetic acid salt] it is 0.02 µM; for `O=C(Nc1cccnc1)N1CC2(CCN(Cc3ccc4c(c3)OC(F)(F)O4)CC2)C1` [Example 87, 7-(2,2-Difluoro-benzo[1,3]-dioxol-5-ylmethyl)-2,7-diaza-spiro[3.5]nonane-2-carboxylic acid pyridin-3-ylamide] it is above 10 µM.
Same read-out and setting: the figure for `O=C(Nc1cccnc1)N1CC2(CCN(Cc3ccccc3Cl)CC2)C1` [Example 98, 7-(2-Chloro-benzyl)-2,7-diaza-spiro[3.5]nonane-2-carboxylic acid pyridin-3-ylamide] is above 10 µM; for `O=C(Nc1cccnc1)N1CC2(CCN(Cc3cccc(Cl)c3)CC2)C1` [Example 99, 7-(3-Chloro-benzyl)-2,7-diaza-spiro[3.5]nonane-2-carboxylic acid pyridin-3-ylamide] it is above 10 µM; for `O=C(Nc1cccnc1)N1CC2(CCN(Cc3ccc(C(F)(F)F)cc3)CC2)C1` [Example 102, N-(pyridin-3-yl)-7-(4-(trifluoromethyl)benzyl)-2,7-diazaspiro[3.5]nonane-2-carboxamide] it is above 10 µM.
As for `O=C(Nc1cccnc1)N1CC2(CCN(Cc3ccc(Cl)c(C(F)(F)F)c3)CC2)C1` [Example 109, 7-(4-chloro-3-(trifluoromethyl)benzyl)-N-(pyridin-3-yl)-2,7-diazaspiro[3.5]nonane-2-carboxamide], the IC50 was above 10 µM.

For the next assay, the target named is T2, FAAH (Homo sapiens, UniProt O00519).
T2 sequence (O00519 1-579): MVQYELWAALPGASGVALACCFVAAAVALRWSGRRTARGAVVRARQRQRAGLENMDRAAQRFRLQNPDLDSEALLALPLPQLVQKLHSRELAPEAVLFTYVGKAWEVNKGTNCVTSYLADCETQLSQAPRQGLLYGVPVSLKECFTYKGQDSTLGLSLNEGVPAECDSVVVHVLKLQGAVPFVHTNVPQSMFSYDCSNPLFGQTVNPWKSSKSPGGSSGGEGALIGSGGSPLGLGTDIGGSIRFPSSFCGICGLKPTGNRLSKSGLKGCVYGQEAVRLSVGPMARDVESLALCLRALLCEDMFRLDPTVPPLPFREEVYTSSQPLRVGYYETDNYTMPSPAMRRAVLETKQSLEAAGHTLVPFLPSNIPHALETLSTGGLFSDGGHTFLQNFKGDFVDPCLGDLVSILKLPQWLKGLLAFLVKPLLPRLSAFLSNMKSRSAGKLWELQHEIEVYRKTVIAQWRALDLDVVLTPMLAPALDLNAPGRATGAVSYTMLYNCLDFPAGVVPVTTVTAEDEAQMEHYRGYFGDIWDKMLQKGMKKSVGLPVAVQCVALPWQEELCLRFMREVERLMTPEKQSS
The assay can be described thus: Assay Method 1: human FAAH assay (3H-anandamide hydrolysis in cell homogenate). On the set-up: expressed in transfected cells; host or cells: SK-N-MC cells stably transfected with human FAAH cDNA (G418 selection); alternatively T84 cell pellets. The note with it: read-out: Assay 1 IC50. The class given is biochemical. How it is done: A. Transfection of Cells with Human FAAH
A 10-cm tissue culture dish with a confluent monolayer of SK-N-MC cells was split 2 days (d) prior to transfection. Using sterile technique, the media was removed and the cells were detached from the dish by the addition of trypsin. One fifth of the cells were then placed onto a new 10-cm dish. Cells were grown in a 37° C. incubator with 5% CO2 in Minimal Essential Media Eagle with 10% Fetal Bovine Serum. After 2 d, cells were approximately 80% confluent. These cells were removed from the dish with trypsin and pelleted in a clinical centrifuge. The pellet was re-suspended in 400 μL complete media and transferred to an electroporation cuvette with a 0.4 cm gap between the electrodes. Supercoiled human FAAH cDNA (1 μg) was added to the cells and mixed. The voltage for the electroporation was set at 0.25 kV, and the capacitance was set at 960 μF. After electroporation, the cells were diluted into complete media (10 mL) and plated onto four 10-cm dishes. Because of the variability in the efficiency of electroporation, four different concentrations of cells were plated. […] The cells were allowed to recover for 24 h before adding the selection media (complete media with 600 μg/mL G418). After 10 d, dishes were analyzed for surviving colonies of cells. Dishes with well-isolated colonies were used. Cells from individual colonies were isolated and tested.
T84 frozen cell pellets or transfected SK-N-MC cells (contents of 1×15 cm culture dishes) were homogenized in 50 mL of FAAH assay buffer (125 mM Tris, 1 mM EDTA, 0.2% Glycerol, 0.02% Triton X-100, 0.4 mM Hepes, pH 9). The assay mixture consisted of 50 μL of the cell homogenate, 10 μL of the test compound, and 40 μL of anandamide [1-^3H-ethanolamine] (^3H-AEA, Perkin-Elmer, 10.3 Ci/mmol), which was added last, for a final tracer concentration of 80 nM. The reaction mixture was incubated at rt for 1 h. During the incubation, 96-well Multiscreen filter plates (catalog number MAFCNOB50; Millipore, Bedford, Mass., USA) were loaded with 25 of activated charcoal (Multiscreen column loader, catalog number MACL09625, Millipore) and washed once with 100 μL of MeOH. Also during the incubation, 96-well DYNEX MicroLite plates (catalog number NL510410) were loaded with 100 μL of MicroScint40 (catalog number 6013641, Packard Bioscience, Meriden, Conn., USA). After the 1 h incubation, 60 μL of the reaction mixture were transferred to the charcoal plates, which were then assembled on top of the DYNEX plates using Centrifuge Alignment Frames (catalog number MACF09604, Millipore). The unbound labeled ethanolamine was centrifuged through to the bottom plate (5 min at 2000 rpm), which was preloaded with the scintillant, as described above. The plates were sealed and left at rt for 1 h before counting on a Hewlett Packard TopCount.
Compounds were tested in free base or trifluoroacetic acid salt forms.
As for `O=C(Nc1cccnc1)N1CCC2(CCCN2Cc2cccc(Oc3ccc(Cl)cc3)c2)C1` (stereo not shown) [Example 7, 1-[3-(4-Chloro-phenoxy)-benzyl]-1,7-diaza-spiro[4.4]nonane-7-carboxylic acid pyridin-3-ylamide], the IC50 was 9 µM.
With `O=C(Nc1cnc2[nH]ccc2c1)N1CC2(CCN(Cc3ccc4c(c3)OC(F)(F)O4)CC2)C1` [Example 89, 7-(2,2-Difluoro-benzo[1,3]dioxol-5-ylmethyl)-2,7-diaza-spiro[3.5]nonane-2-carboxylic acid (1H-pyrrolo[2,3-b]pyridin-5-yl)-amide], the half-maximal inhibitory concentration (IC50) is 0.5 µM.
As to `O=C(Nc1cccnc1)N1CC2(CCN(Cc3cccc(Oc4ccc(OCC(F)(F)F)cc4)c3)CC2)C1` [Example 128, 7-{3-[4-(2,2,2-Trifluoro-ethoxy)-phenoxy]-benzyl}-2,7-diaza-spiro[3.5]nonane-2-carboxylic acid pyridin-3-ylamide], the IC50 turned out to be 8 µM.
